pIC50: −log10 of the molar value.
How the values were obtained:
[1] = biological target: adenosine A2A receptor (Homo sapiens (Human), UniProt P29274); experiment: Adenosine receptor activity assay (Table 1), A2A activity; assay type: biochemical; conditions: read-out: Ave A2A cAMP IC50
[2] = biological target: adenosine A3 receptor (Homo sapiens (Human), UniProt P0DMS8); experiment: Adenosine receptor activity assay (Table 1), A3 cAMP; assay type: cell-based
[3] = biological target: adenosine A2B receptor (Homo sapiens (Human), UniProt P29275); experiment: Adenosine receptor activity assay (Table 1), A2B activity; assay type: biochemical; conditions: for Ratio: A2A activity to A2B activity (A2A/A2B); for pIC50: read-out: Ave A2B cAMP IC50
adenosine A2B receptor, sequence (P29275 whole entry): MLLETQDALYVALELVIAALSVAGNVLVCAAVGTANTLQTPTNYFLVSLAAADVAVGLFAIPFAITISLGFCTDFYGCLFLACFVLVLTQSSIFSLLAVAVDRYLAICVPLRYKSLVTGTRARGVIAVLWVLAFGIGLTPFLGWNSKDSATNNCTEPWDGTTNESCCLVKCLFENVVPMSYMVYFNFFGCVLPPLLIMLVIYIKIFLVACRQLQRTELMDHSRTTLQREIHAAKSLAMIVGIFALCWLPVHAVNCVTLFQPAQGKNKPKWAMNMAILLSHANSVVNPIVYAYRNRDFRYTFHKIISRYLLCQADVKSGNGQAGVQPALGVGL

[4] = biological target: adenosine A1 receptor (Homo sapiens (Human), UniProt P30542); experiment: Adenosine receptor activity assay (Table 1), A1 cAMP; assay type: cell-based
adenosine A1 receptor, sequence (P30542 whole entry): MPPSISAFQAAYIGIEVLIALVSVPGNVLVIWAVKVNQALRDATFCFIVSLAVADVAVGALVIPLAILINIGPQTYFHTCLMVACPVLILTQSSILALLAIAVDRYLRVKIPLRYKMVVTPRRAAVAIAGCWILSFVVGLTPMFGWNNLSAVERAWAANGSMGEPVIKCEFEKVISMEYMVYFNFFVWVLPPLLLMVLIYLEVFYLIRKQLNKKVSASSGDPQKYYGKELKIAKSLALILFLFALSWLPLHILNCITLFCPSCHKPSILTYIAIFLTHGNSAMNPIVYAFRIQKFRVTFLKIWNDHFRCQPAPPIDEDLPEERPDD

adenosine A3 receptor, sequence (P0DMS8 whole entry): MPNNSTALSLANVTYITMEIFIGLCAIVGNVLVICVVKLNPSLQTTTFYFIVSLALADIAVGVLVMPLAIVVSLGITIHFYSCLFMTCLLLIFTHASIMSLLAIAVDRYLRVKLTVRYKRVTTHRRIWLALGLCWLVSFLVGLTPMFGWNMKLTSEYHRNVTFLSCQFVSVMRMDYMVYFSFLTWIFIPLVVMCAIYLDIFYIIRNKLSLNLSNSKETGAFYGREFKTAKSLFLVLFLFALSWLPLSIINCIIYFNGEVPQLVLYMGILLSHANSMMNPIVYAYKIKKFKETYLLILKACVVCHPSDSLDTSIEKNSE
adenosine A2A receptor, sequence (P29274 whole entry): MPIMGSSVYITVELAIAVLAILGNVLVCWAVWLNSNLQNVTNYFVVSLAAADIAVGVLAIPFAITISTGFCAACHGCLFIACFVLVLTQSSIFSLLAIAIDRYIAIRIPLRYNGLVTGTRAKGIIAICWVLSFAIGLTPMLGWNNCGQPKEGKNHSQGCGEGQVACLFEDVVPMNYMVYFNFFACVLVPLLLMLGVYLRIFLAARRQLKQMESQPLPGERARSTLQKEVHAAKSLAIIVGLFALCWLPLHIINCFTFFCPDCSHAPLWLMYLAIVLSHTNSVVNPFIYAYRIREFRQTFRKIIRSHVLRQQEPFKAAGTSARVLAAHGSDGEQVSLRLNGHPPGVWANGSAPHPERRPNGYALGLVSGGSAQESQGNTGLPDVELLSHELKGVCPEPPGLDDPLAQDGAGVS

SMILES	pIC50 [1]	pIC50 [2]	Ratio [3]	pIC50 [3]	pIC50 [4]
Cc1cc2nc(N[C@@H](C)c3cncc(F)c3)nc(C(=O)N3CCC3)c2s1 [Example Z276, (S)-Azetidin-1-yl(2-((1-(5-fluoropyridin-3-yl)ethyl)amino)-6-methylthieno[3,2-d]pyrimidin-4-yl)methanone]	7.00 to 7.30	7.00 to 7.30	92.47	> 8.00	7.00 to 7.30
CO[C@H]1CCN(C(=O)c2nc(N[C@@H](C)c3cncc(Cl)c3)nc3ccsc23)C1 [Example Z254, (2-(((S)-1-(5-Chloropyridin-3-yl)ethyl)amino)thieno[3,2-d]pyrimidin-4-yl)((S)-3-methoxypyrrolidin-1-yl)methanone]	6.30 to 7.00	< 6.30	9.38	7.30 to 8.00	< 6.30
C[C@H](Nc1nc(C(=O)N[C@@H]2CCN(C(=O)OC(C)(C)C)C2)c2sccc2n1)c1ccccn1 [Example Z326, tert-Butyl (R)-3-(2-(((S)-1-(pyridin-2-yl)ethyl)amino)thieno[3,2-d]pyrimidine-4-carboxamido)pyrrolidine-1-carboxylate]	7.30 to 8.00	7.30 to 8.00	0.54	7.00 to 7.30	< 6.30
C[C@H](Nc1nc(C(=O)N[C@H]2C[C@@H](O)C2)c2sccc2n1)c1cncc(Cl)c1 [Example Z305, 2-(((S)-1-(5-Chloropyridin-3-yl)ethyl)amino)-N-((1s,3R)-3-hydroxycyclobutyl)thieno[3,2-d]pyrimidine-4-carboxamide]	7.00 to 7.30	< 6.30	38.51	> 8.00	< 6.30
C[C@H](Nc1nc(C(=O)N2CC[C@@H](CO)C2)c2sccc2n1)c1cncc(F)c1 [Example Z295, (2-(((S)-1-(5-Fluoropyridin-3-yl)ethyl)amino)thieno[3,2-d]pyrimidin-4-yl)((R)-3-(hydroxymethyl)pyrrolidin-1-yl)methanone]	6.30 to 7.00	< 6.30	68.33	> 8.00	< 6.30
COC1CN(C(=O)c2nc(N[C@@H](C)c3ccccn3)nc3cc(C)sc23)C1 [Example Z300, (S)-(3-Methoxyazetidin-1-yl)(6-methyl-2-((1-(pyridin-2-yl)ethyl)amino)thieno[3,2-d]pyrimidin-4-yl)methanone]	7.30 to 8.00	7.00 to 7.30	21.89	> 8.00	7.00 to 7.30
Cc1cc2nc(N[C@@H](C)c3ccccn3)nc(C(=O)N3CC(O)C3)c2s1 [Example Z285, (S)-(3-Hydroxyazetidin-1-yl)(6-methyl-2-((1-(pyridin-2-yl)ethyl)amino)thieno[3,2-d]pyrimidin-4-yl)methanone]	6.30 to 7.00	7.00 to 7.30	51.08	> 8.00	7.00 to 7.30
C[C@H](Nc1nc(C(=O)N2CC[C@@H](O)C2)c2sc(N)cc2n1)c1cncc(F)c1 [Example Z242, (6-Amino-2-(((S)-1-(5-fluoropyridin-3-yl)ethyl)amino)thieno[3,2-d]pyrimidin-4-yl)((R)-3-hydroxypyrrolidin-1-yl)methanone]	6.30 to 7.00	< 6.30	45.21	> 8.00	< 6.30
COC[C@@H](Nc1nc(C(=O)N2CCC2)c2sccc2n1)c1cccnc1 [Example Z341, (S)-Azetidin-1-yl(2-((2-methoxy-1-(pyridin-3-yl)ethyl)amino)thieno[3,2-d]pyrimidin-4-yl)methanone]	6.30 to 7.00	< 6.30	30.12	> 8.00	< 6.30
Cc1cc2nc(N[C@@H](C)c3cncc(F)c3)nc(C(=O)NC[C@H]3CCOC3)c2s1 [Example Z390, 2-(((S)-1-(5-fluoropyridin-3-yl)ethyl)amino)-6-methyl-N—(((R)-tetrahydrofuran-3-yl)methyl)thieno[3,2-d]pyrimidine-4-carboxamide]	6.30 to 7.00	7.00 to 7.30	68.99	> 8.00	7.00 to 7.30
CC(C)NC(=O)c1nc(N[C@@H](C)c2ccccn2)nc2ccsc12 [Example Z199, (S)—N-Isopropyl-2-((1-(pyridin-2-yl)ethyl)amino)thieno[3,2-d]pyrimidine-4-carboxamide]	7.30 to 8.00	7.00 to 7.30	3.51	> 8.00	< 6.30
C[C@H](Nc1nc(C(=O)NCC(F)(F)F)c2sccc2n1)c1ccccn1 [Example Z226, (S)-2-((1-(Pyridin-2-yl)ethyl)amino)-N-(2,2,2-trifluoroethyl)thieno[3,2-d]pyrimidine-4-carboxamide]	7.00 to 7.30	< 6.30	11.22	> 8.00	< 6.30
Cc1cc2nc(N[C@@H](C)c3cncc(F)c3)nc(C(=O)N3CC[C@@H](CO)C3)c2s1 [Example Z310, (2-(((S)-1-(5-Fluoropyridin-3-yl)ethyl)amino)-6-methylthieno[3,2-d]pyrimidin-4-yl)((R)-3-(hydroxymethyl)pyrrolidin-1-yl)methanone]	6.30 to 7.00	< 6.30	71.73	> 8.00	< 6.30
C[C@H](Nc1nc(C(=O)NCCC2CCNC2)c2sccc2n1)c1cncc(F)c1 (stereo partly drawn) [Example Z386, 2-(((S)-1-(5-Fluoropyridin-3-yl)ethyl)amino)-N-(2-(pyrrolidin-3-yl)ethyl)thieno[3,2-d]pyrimidine-4-carboxamide]	< 6.30	< 6.30	100.94	7.30 to 8.00	< 6.30
CC(=O)N[C@H]1CCN(C(=O)c2nc(N[C@@H](C)c3cncc(F)c3)nc3ccsc23)C1 [Example Z331, N—((S)-1-(2-(((S)-1-(5-Fluoropyridin-3-yl)ethyl)amino)thieno[3,2-d]pyrimidine-4-carbonyl)pyrrolidin-3-yl)acetamide]	6.30 to 7.00	< 6.30	61.94	> 8.00	< 6.30

More lines, now with the values ahead:

pIC50 [1]	pIC50 [2]	Ratio [3]	pIC50 [3]	pIC50 [4]	SMILES
6.30 to 7.00	< 6.30	9.48	7.30 to 8.00	< 6.30	C[C@H](Nc1nc(C(=O)NCC(F)(F)F)c2sccc2n1)c1cncc(F)c1 [Example Z263, (S)-2-((1-(5-Fluoropyridin-3-yl)ethyl)amino)-N-(2,2,2-trifluoroethyl)thieno[3,2-d]pyrimidine-4-carboxamide]
< 6.30	< 6.30	136.91	> 8.00	< 6.30	Cc1cc2nc(N[C@@H](C)c3cccnc3)nc(C(=O)N3CC[C@H](CO)C3)c2s1 [Example Z336, ((S)-3-(Hydroxymethyl)pyrrolidin-1-yl)(6-methyl-2-(((S)-1-(pyridin-3-yl)ethyl)amino)thieno[3,2-d]pyrimidin-4-yl)methanone]
6.30 to 7.00	7.00 to 7.30	35.51	> 8.00	< 6.30	Cc1cc2nc(N[C@@H](C)c3ccccn3)nc(C(=O)NC[C@@H](C)O)c2s1 [Example Z288, N—((R)-2-Hydroxypropyl)-6-methyl-2-(((S)-1-(pyridin-2-yl)ethyl)amino)thieno[3,2-d]pyrimidine-4-carboxamide]
7.00 to 7.30	7.00 to 7.30	29.96	> 8.00	7.00 to 7.30	Cc1cc2nc(N[C@@H](C)c3cncc(F)c3)nc(C(=O)NCC(C)(C)O)c2s1 [Example Z308, (S)-2-((1-(5-Fluoropyridin-3-yl)ethyl)amino)-N-(2-hydroxy-2-methylpropyl)-6-methylthieno[3,2-d]pyrimidine-4-carboxamide]
6.30 to 7.00	< 6.30	24.38	> 8.00	< 6.30	C[C@H](Nc1nc(C(=O)NCCO)c2sccc2n1)c1cncc(F)c1 [Example Z275, (S)-2-((1-(5-Fluoropyridin-3-yl)ethyl)amino)-N-(2-hydroxyethyl)thieno[3,2-d]pyrimidine-4-carboxamide]
6.30 to 7.00	7.00 to 7.30	171.86	> 8.00	< 6.30	Cc1cc2nc(N[C@@H](C)c3cccnc3)nc(C(=O)NC[C@@H](C)O)c2s1 [Example Z334, N—((R)-2-Hydroxypropyl)-6-methyl-2-(((S′)-1-(pyridin-3-yl)ethyl)amino)thieno[3,2-d]pyrimidine-4-carboxamide]
< 6.30	7.00 to 7.30	92.29	7.30 to 8.00	< 6.30	C[C@H](Nc1nc(C(=O)NC[C@@H](C)O)c2sc(C(F)(F)F)cc2n1)c1cccnc1 [Example Z348, N—((R)-2-Hydroxypropyl)-2-(((S)-1-(pyridin-3-yl)ethyl)amino)-6-(trifluoromethyl)thieno[3,2-d]pyrimidine-4-carboxamide]
7.00 to 7.30	< 6.30	26.11	> 8.00	< 6.30	COC1CN(C(=O)c2nc(N[C@@H](C)c3cccnc3)nc3cc(C)sc23)C1 [Example Z286, (S)-(3-Methoxyazetidin-1-yl)(6-methyl-2-((1-(pyridin-3-yl)ethyl)amino)thieno[3,2-d]pyrimidin-4-yl)methanone]
7.30 to 8.00	7.00 to 7.30	24.55	> 8.00	7.30 to 8.00	Cc1cc2nc(N[C@@H](C)c3cncc(F)c3)nc(C(=O)NCC(F)(F)F)c2s1 [Example Z280, (S)-2-((1-(5-Fluoropyridin-3-yl)ethyl)amino)-6-methyl-N-(2,2,2-trifluoroethyl)thieno[3,2-d]pyrimidine-4-carboxamide]
